Experimental findings from PubChem BioAssay (NCI) are described below.

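1) Cells in 96-well plates. 2) Compound, 48 h, 5 concentrations. 3) Linear interpolation between surrounding doses. 4) Unreached endpoint = highest concentration. TGI marks complete inhibition of growth.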

Common to all, as to experiment: NCI tumour cell line growth inhibition, 48 h
For experiment [1], the system named is HT29 colon.
The subject of experiment [2] is HOP-92 NSCLC.
Experiment [3] concerns OVCAR-8 ovarian.
For experiment [4], the system named is HCC-2998 colon.
Experiment [5] has as its system SR leukemia.
The test system of experiment [6] is MOLT-4 leukemia.
Experiment [7] relates to UACC-257 melanoma.
In experiment [8] the test system is IGROV1 ovarian.
Experiment [9] has as its system K-562 leukemia.
For experiment [10], the system named is EKVX NSCLC.

`NC(C(F)(F)F)(C(F)(F)F)P(=O)(c1ccccc1)c1ccccc1`: the TGI in experiment [1], in experiment [2], in [3], in experiment [4], in experiment [5] and in experiment [6] was > 100 µM each time. The TGI in experiment [7], in experiment [8], in experiment [9] and in experiment [10] was > 100 µM in each case.
For `Cc1cnc2[nH]c(-c3ccc(F)cc3)cc(=O)c2c1`, the TGI is > 100 µM in [1]; > 100 µM in experiment [2]; > 100 µM in experiment [3]; > 100 µM in experiment [4]; > 61.5 µM in [5]; > 91.5 µM in experiment [6]. Also, the TGI was > 100 µM in [7], > 100 µM in experiment [8], 47 µM in experiment [9] and > 100 µM in [10].
As to `COc1ccc(CNc2nc(NCc3ccc(OC)cc3)nc(NC(C)C)n2)cc1`, the TGI in experiment [1] was > 100 µM; in experiment [2] it was 48.7 µM; in [3] it was 33.6 µM; in experiment [4], 64.8 µM; in [5], > 100 µM; in experiment [6], > 100 µM. The TGI is 39.8 µM in experiment [7], > 100 µM in experiment [8], > 100 µM in [9] and 93.2 µM in experiment [10].
